According to patent US11000568B2, “Means and methods for treating copper-related diseases” (HELMHOLTZ ZENTRUM MÜNCHEN—DEUTSCHES FORSCHUNGSZENTRUM FÜR …, priority 2015, dated 2021):
Entries after “also recorded” stand apart in the source; their conditions may differ. Numbered stars: 1 amine (or outer) side, 2 acyl side, 3 side chain; on linkers, the order of the positions; unused ones are H or OH. Bridge positions count the residues as written; N and C are the ends. Square brackets hold non-standard residues; d marks the D form. Peptide text beside a SMILES is read from it. * marks the point of attachment. X2 = O=C1OC(C2CCCN2[*:1])=NC1C(=S)NC(CO)C(=O)[*:2]; X1 = CC(C)CC(=O)C1=NC(C(=S)NCC(=O)*)C(=O)O1

Columns and labels:
LPP−/− rats [1] = test: Short-term in vivo treatment of LPP−/− rats; design: species or system rat
Procedure: LPP rats were treated with MB either by daily i.p. injections for 3 or 5 consecutive days, or twice daily i.p. injections for 8 consecutive days at a dose of 150 mg/kg bw or 4 days via the drinking water with D-PA at a dose of 100 mg/kg bw/d or TETA at 480 mg/kg bw/d, respectively (Togashi et al., Hepatology 15, 82-87 (1992)). Based on a mean copper content of 250 μg/g w.w. in Atp7b−/− rat livers at the age of treatment start (Zischka et al., log. cit.), a LPP−/− rat liver of 8 g w.w. contains around 31.5 μmol copper. Single MB doses were chosen equimolar to this copper amount. […] Assuming 40 ml water intake per day for a rat weighing 250 g this translates to a dose of 480 mg/kg bw/d. With respect to the mean liver copper content in LPP−/− rats aged 85 days, the molar ratios of the chelators applied was MB 1:D-PA 4.3:TETA 17.4, respectively. For the intravenous MB application (150 mg/kg bw), catheters connected to a PinPort™ (Instech Laboratories, Inc., USA) were inserted in the femoral vein of the rat, fixed with non-absorbable sutures and subcutaneously tunneled and exteriorized through a skin incision made between the shoulders.
Formalin-fixed, paraffin-embedded liver samples were cut into 4 μm-thick sections and either stained with hematoxylin and eosin for standard analyses or with Masson trichrome for analysis of fibrotic tissue. AST activity and bilirubin concentration in animal plasma or serum were measured with a Reflotron system (Roche).
Copper in liver homogenates, cell lysates and mitochondrial preparations were analyzed by ICP-OES (Ciros Vision, SPECTRO Analytical Instruments GmbH) after wet ashing of samples with 65% nitric acid (Zischka et al., log. cit.).
The efficiency of a short-term MB treatment schedule was assessed in LPP−/− rats at the age of liver disease onset (85-90 days). Animals received MB (i.p.) either for 3 or 5 days or the clinically used copper chelators D-PA or TETA, which were orally administered for 4-days.

HepG2 cells [2] = test: Mitochondrial membrane potential staining of HepG2 cells; assay type: cell-based; conditions: 500 μM MB
Procedure: For immunofluorescence staining, 2×10^4 cells were incubated with either medium alone, 500 μM MB or 250 μM CCCP in black 96-well plates with clear glass bottom. Staining was done by 1.6 μM Hoechst 33342 (ex 360-400 nm, em 410-480 nm), 300 nM MitoTracker® red (ex 620-640 nm, em 650-760 nm), and 1 μM nonyl acridine orange (NAO, ex 460-490 nm, em 500-550 nm) for 40 minutes at 37° C. After a washing step, fluorescence was analyzed.

metallothionein = conditions: in vitro and in vivo experiments; cited from earlier work
LPP−/− rats [3] = test: Repetitive MB treatment cycles in LPP−/− rats; assay type: in vivo, rat
From the text: Due to the efficiency of the short-term MB treatment, we did a first test aiming at replacing daily chelation therapy by a regimen consisting of repetitive treatment cycles interrupted by longer observation cycles (FIG. 14). Five LPP−/− rats as well as five age- and sex-matched LPP+/− controls were included. One pair of rats was sacrificed at experimental days 1, 8, 29, 36 and 85, respectively. […] The four remaining LPP−/− rats were subjected to the first treatment cycle consisting of three daily MB injections (i.p.) for five days. […] Upon the second treatment cycle copper loads decreased again, but now down to 25% of the starting values, resulting in an unprecedented low copper load in LPP−/− mitochondria (day 36, pair 4). […] At experimental day 85, liver and mitochondrial copper loads had risen back to values before beginning of the treatment (day 1), associated with an impaired mitochondrial function (65% ATP production capacity) in comparison to its LPP+/− control (pair 5).

HepG2 cells [4] = test: Neutral red cell toxicity assay; assay type: cell-based; conditions: 24 hours, 0.05 to 1 mM Zinc-MB
Procedure: Neutral red cell toxicity assay was done as described elsewhere (Repetto et al., Nat Protoc 3, 1125-1131 (2008)). In brief, 2×10^4 cells were incubated for 24 hours either with medium alone (containing 2% FCS, negative control), 0.05 to
1 mM Zinc-MB, or 0.25 mM CCCP as mitochondriotoxic positive control and subsequently analyzed by neutral red.

LPP−/− livers = test: Two hour LPP−/− liver perfusion; design: species or system rat
Procedure: LPP−/− livers (animal age 79-83 days) were perfused in a single pass manner with Krebs-Ringer bicarbonate solution containing 5 mM glucose (Beuers et al., J Biol Chem 278, 17810-17818 (2003)). The medium was gassed with 95% O2/5% CO2 and kept at 37° C. Rat livers were perfused via the portal vein (Beuers et al., log. cit.), the right lateral liver lobe was ligated and its copper content served as pre-perfusion control (Beuers et al., Hepatology 33, 1206-1216 (2001)). After cannulation of the bile duct a 20 min sample of bile was collected before the copper chelators were continuously added to the perfusion medium. Bile and outflow perfusate were collected in 10 min intervals as described elsewhere (Beuers et al., log. cit.). D-PA*HCl (20 mg/108 μmol), TETA*2HCl (20 mg/91 μmol), TTM*2NH4 (10 mg/38 μmol) and MB (40 mg/35 μmol) were each dissolved in 50 ml 0.9% NaCl, and continuously added to the perfusion medium via a perfusion pump (Perfusor, Braun, Melsungen) within 2 hours. The molar ratios of the chelators applied was MB 1:D-PA 3.1:TETA 2.6:TTM 1.1. LDH in the outflow perfusate was measured every ten minutes as described (Beuers et al., log. cit.). Control perfusions were done with Krebs-Ringer bicarbonate solution only.

[5] = MB i.p. 3 or 5 days, D-PA or TETA 4 days
[6] = i.v. MB daily, five consecutive days
[7] = day 36, after second treatment cycle

CSCCC(NC(=O)C1CSSCC(NC(=O)C(CO)NC(=O)CNC(=S)C2N=C(C(=O)CC(C)C)OC2=O)C(=O)NC(Cc2ccc(O)cc2)C(=O)N2CCCC2C2=NC(C(=O)O2)C(=S)NC(CO)C(=O)N1)C(=O)O (stereo not shown) [MB] (X1-SCY[X2]CM-OH; disulfide 2-5; configuration not given here)
histopathological liver damage (LPP−/− rats [1]; MB 150 mg/kg bw i.p. daily 3 or 5 days, D-PA 100 mg/kg bw/d or TETA 480 mg/kg bw/d oral 4 days): strong reduction of histopathological liver damage markers | duration of normal serum AST on MB drug holiday (LPP−/− rats [1]; MB five days, then drug holiday, zinc enriched food (1000 ppm)): at least two weeks | body weight (LPP−/− rats [1]; MB i.p. 3 or 5 days): regained body weight | mitochondrial copper (LPP−/− rats [1]; [5]): significant reduction at the mitochondrial copper level | serum AST levels (LPP−/− rats [1]; [5]): markedly decreased | whole liver copper (LPP−/− rats [1]; [5]): progressive reduction in total liver copper; also recorded: progressive but minor reduction at the whole liver copper level | serum AST (LPP−/− rats [1]; after 5 days of MB treatment, two onset and one diseased rat): < 200 U/L | severely impaired mitochondria (type 4) in isolates (LPP−/− rats [1]; electron microscopy, short-term treatment): almost absent | body weight (LPP−/− rats [1]; i.v. MB 150 mg/kg bw daily, five consecutive days): All animals regained bodyweight | AST or bilirubin levels (LPP−/− rats [1]; [6]): levels returned to normal | copper content of whole liver and purified mitochondria (LPP−/− rats [1]; [6]): profound reduction in copper content | mitochondrial copper load (LPP−/− rats [1]; one week: 5× MB i.p., 5× MB i.v., 16× MB i.p.): drastically reduce the mitochondrial copper load | ATP production of isolated mitochondria (LPP−/− rats [1]; short term MB treatments): reverse this impairment | mitochondrial membrane potential (HepG2 cells [2]): reduced the mitochondrial membrane potential only partially; also recorded: only intermediate phases of mitochondrial membrane potential loss | removal of Cu from metallothionein (metallothionein): has been shown to remove Cu from metallothionein | copper loads relative to starting values (LPP−/− rats [3]; [7]): 25% | decoppering efficiency (LPP−/− rats [3]; [7]): 75% | ATP production capacity vs LPP+/− control (LPP−/− rats [3]; experimental day 85): 65% | reduction in copper load (LPP−/− rats [3]; experimental day eight, after first cycle (three daily MB i.p. for five days)): 40% | health status during observation period (LPP−/− rats [3]; further seven weeks after second cycle): stayed healthy | mitochondrial and liver copper load (LPP−/− rats [3]; recurrent treatment cycles): marked reduction in mitochondrial and liver copper load | time/age to disease onset vs untreated LPP−/− rats (LPP−/− rats [3]; recurrent treatment cycles): doubling of the age; also recorded: doubling of time before disease onset | cytotoxic effects (neutral red) (HepG2 cells [4]): only observed at millimolar MB concentrations | copper released into bile (LPP−/− livers; MB 0.7 μM, TTM 0.8 μM, D-PA 2.2 μM, TETA 1.8 μM): tenfold higher amounts of copper; also recorded: tenfold higher copper amounts into bile | liver copper content after perfusion (LPP−/− livers; vs pre-perfusion/buffer control): significantly reduced the copper content; also recorded: significantly reduces the liver copper content
